# Results as given in ChEMBL document CHEMBL3882387, “Combination of selected analgesics and COX-II inhibitors” (2005).
# Legend:
# Assay type in all cases: functional
# [1] = system: Rattus norvegicus; experiment: (§1) Analgesic activity in rat assessed as reduction in baking yeast suspension-induced hind paw oedema by measuring combination effect at 46.4 mg/kg, po co-administered with 215 mg/kg COX2 inhibitor celecoxib (celebrex) 1 hr prior to compound addition by Randall-selitto test relative to control; parameters: scale not given: the % may be the effect or the level left
# [2] = system: Rattus norvegicus; experiment: Analgesic activity in rat assessed as reduction in baking yeast suspension-induced hind paw oedema by measuring combination effect at 21.5 mg/kg, po co-administered with 215 mg/kg COX2 inhibitor celecoxib (celebrex) 1 hr prior to compound addition by Randall-selitto test relative to control; parameters: scale not given: the % may be the effect or the level left
# [3] = system: Rattus norvegicus; experiment: as §1, with “68.1” for “46.4”, “coadministered” for “co-administered”, “addition measured after 15 to 75 mins” for “addition”; parameters: scale not given: the % may be the effect or the level left
# [4] = system: Rattus norvegicus; experiment: as §1, with “68.1” for “46.4”, “coadministered” for “co-administered”, “addition measured after 75 to 90 mins” for “addition”; parameters: scale not given: the % may be the effect or the level left
# [5] = system: Rattus norvegicus; experiment: Analgesic activity in rat assessed as reduction in baking yeast suspension-induced hind paw oedema at 215 mg/kg, po pretreated for 1 hr followed by 21.5 mg/kg (1S,2S)-3-(3-dimethylamino-l-ethyl-2-methyl-propyl)-phenol;hydrochloride addition by Randall-selitto test relative to control; parameters: scale not given: the % may be the effect or the level left
# [6] = system: Rattus norvegicus; experiment: Analgesic activity in rat assessed as reduction in baking yeast suspension-induced hind paw oedema at 215 mg/kg, po pretreated for 1 hr followed by 31 mg/kg (1R,2R)-3-(3-dimethylamino-l-ethyl-2-methyl-propyl)-phenol; hydrochloride addition by Randall-selitto test relative to control; parameters: scale not given: the % may be the effect or the level left
# [7] = system: Rattus norvegicus; experiment: Analgesic activity in rat assessed as reduction in baking yeast suspension-induced hind paw oedema at 215 mg/kg, po pretreated for 1 hr followed by 46.4 mg/kg ((1R,2R)-3-(2-dimethylaminomethyl-cyclohexyl)-phenol;1 hydrochloride addition by Randall-selitto test relative to control; parameters: scale not given: the % may be the effect or the level left
# [8] = system: Rattus norvegicus; experiment: Analgesic activity in rat assessed as reduction in baking yeast suspension-induced hind paw oedema at 215 mg/kg, po pretreated for 1 hr followed by 46 mg/kg (1R,2R)-3-(3-dimethylamino-l-ethyl-2-methyl-propyl)-phenol; hydrochloride addition by Randall-selitto test relative to control; parameters: scale not given: the % may be the effect or the level left
# [9] = system: Rattus norvegicus; experiment: (§2) Analgesic activity in rat assessed as reduction in baking yeast suspension-induced hind paw oedema at 215 mg/kg, po pretreated for 1 hr followed by 68.1 mg/kg (1RS,3RS,6RS)-6-dimethylaminomethyl-1-(3-[methoxy-phenyl)-cyclohexane-1,3-diol;hydrochloride addition measured after 75 to 90 mins by Randall-selitto test relative to control; parameters: scale not given: the % may be the effect or the level left
# [10] = system: Rattus norvegicus; experiment: as §2, with “after 15 to” for “after”, “75” for “75 to 90”; parameters: scale not given: the % may be the effect or the level left
# [11] = system: Rattus norvegicus; experiment: Analgesic activity in rat assessed as reduction in baking yeast suspension-induced hind paw oedema at 215 mg/kg, po co-administered with 31 mg/kg (1R,2R)-3-(3-dimethylamino-l-ethyl-2-methyl-propyl)-phenol; hydrochloride by Randall-selitto test relative to control; parameters: scale not given: the % may be the effect or the level left
# [12] = system: Rattus norvegicus; experiment: Analgesic activity in rat assessed as reduction in baking yeast suspension-induced hind paw oedema by measuring combination effect at 46 mg/kg, po co-administered with 215 mg/kg COX2 inhibitor celecoxib (celebrex) by Randall-selitto test relative to control; parameters: scale not given: the % may be the effect or the level left
# [13] = system: Rattus norvegicus; experiment: Analgesic activity in po dosed rat assessed as reduction in acetic acid-induced writhings by measuring combination ED50 co-administered with COX2 inhibitor rofecoxib pretreated for 30 mins followed by acetic acid challenge measured after 10 to 35 mins by writhing test
# [14] = system: Rattus norvegicus; experiment: Analgesic activity in rat assessed as reduction in baking yeast suspension-induced hind paw oedema at 31 mg/kg, po by measuring combination effect co-administered with 215 mg/kg COX2 inhibitor rofecoxib (vioxx) by Randall-selitto test relative to control; parameters: scale not given: the % may be the effect or the level left
# [15] = system: Rattus norvegicus; experiment: Analgesic activity in rat assessed as reduction in baking yeast suspension-induced hind paw oedema at 31 mg/kg, po by measuring combination effect co-administered with 215 mg/kg COX2 inhibitor celecoxib by Randall-selitto test relative to control; parameters: scale not given: the % may be the effect or the level left
# [16] = system: Rattus norvegicus; experiment: Analgesic activity in rat assessed as reduction in baking yeast suspension-induced hind paw oedema by measuring combination effect at 46 mg/kg, po coadministered with 215 mg/kg COX2 inhibitor rofecoxib (vioxx) 1 hr prior to compound addition by Randall-selitto test relative to control; parameters: scale not given: the % may be the effect or the level left
# [17] = system: Rattus norvegicus; experiment: Analgesic activity in rat assessed as reduction in baking yeast suspension-induced hind paw oedema by measuring combination effect at 31 mg/kg, po coadministered with 215 mg/kg COX2 inhibitor rofecoxib (vioxx) 1 hr prior to compound addition by Randall-selitto test relative to control; parameters: scale not given: the % may be the effect or the level left
# [18] = system: Rattus norvegicus; experiment: Analgesic activity in po dosed formalin-induced chronic pain rat model assessed as reduction in behavioural change by measuring combination ED50 co-administered with COX2 inhibitor celecoxib measured up to 60 mins by formalin test; details: 1 h
# [19] = system: Rattus norvegicus; experiment: Analgesic activity in rat assessed as reduction in baking yeast suspension-induced hind paw oedema by measuring combination effect at 31 mg/kg, po co-administered with 215 mg/kg COX2 inhibitor celecoxib (celebrex) by Randall-selitto test relative to control; parameters: scale not given: the % may be the effect or the level left
compound,measurement,setting,value
CN(C)C[C@@H]1CCCC[C@H]1c1cccc(O)c1.Cl,Activity,[1],84.1%
CC[C@H](c1cccc(O)c1)[C@H](C)CN(C)C.Cl,Activity,[2],96.4%
COc1cccc([C@@]2(O)C[C@H](O)CC[C@@H]2CN(C)C)c1.Cl (racemic),Activity,[3],109.3%
same,Activity,[4],68.5%
Cc1ccc(-c2cc(C(F)(F)F)nn2-c2ccc(S(N)(=O)=O)cc2)cc1 [CELECOXIB],Activity,[5],8.9%
same,Activity,[6],17.3%
same,Activity,[7],8.9%
same,Activity,[8],17.3%
same,Activity,[9],8%
same,Activity,[10],16.7%
CS(=O)(=O)c1ccc(C2=C(c3ccccc3)C(=O)OC2)cc1 [ROFECOXIB],Activity,[6],13%
same,Activity,[8],13%
same,Activity,[11],11.2%
CC[C@@H](c1cccc(O)c1)[C@@H](C)CN(C)C.Cl [TAPENTADOL HYDROCHLORIDE],Activity,[12],86.1%
same,ED50,[13],23.3 mg/kg
same,Activity,[14],29.7%
same,Activity,[15],29.6%
same,Activity,[16],59.8%
same,Activity,[17],45.7%
same,ED50,[18],60.6 mg/kg
same,Activity,[19],60.9%
